Results published in US20080268072A1, “Method of Improving Anticancer Effect of Pulsatillae Radix and a Composition Prepared by the Method” (Song-Bae Kim, priority 2004, published 2008).

Tests used:
LL/2 cancer = settings: BDF1 mouse; cited from earlier work
NCI-H23 cell line = settings: comparison with adriamicine; cited from earlier work
tumor = assay: Antitumor activity (test not specified)

Compound	inhibition effect against LL/2 cancer (LL/2 cancer) [%]	activity against NCI-H23 cell line compared with adriamicine (NCI-H23 cell line)	antitumor activity (tumor)
CC1OC(OC2C(O[C@H]3CC[C@@]4(C)C(CC[C@]5(C)C4CC=C4C6CC(C)(C)CC[C@]6(C(=O)O)CC[C@]45C)[C@]3(C)CO)OCC(OC3OC(CO)C(O)C(O)C3O)C2O)C(O)C(O)C1O (stereo partly drawn) [SB365, 3-0-[0-α-L-rhamnopyranosyl-(1→2)-[0-β-D-glucopyranosyl-(1→4)]-α-L-arabinopyranosyl]hederagenin]	80	more strong activity	–
3-0-[0-α-L-rhamnopyranosyl-(1→2)-[0-β-D-glucopyranosyl-(1→4)]-α-L-arabinopyranosyl]hederagenin 28-0-α-L-rhamnopyranosyl-(1→4-[0-β-D-glucopyranosyl-(1→6]-β-D-glucopyranosyl ester [SB 365-0]	–	–	no antitumor activity
